The source of these data is PMC8281026, “Peptide Based Inhibitors of Protein Binding to the Mitogen-Activated Protein Kinase Docking Groove” (Frontiers in Molecular Biosciences, 2021).

For assay [1], the system named is HEK-293T cells. Nature of the assay: Cellular uptake by fluorescence microscopy. It counts as cell-based. The conditions noted are these: for internalization into HEK-293T cells: fluorescence microscopy, serum-free medium, 37 °C, up to 3 h, Figure 1; for cellular uptake: data is not shown. The procedure:
(§1) The cellular uptake of the fluorescent labeled peptide into HEK-293T cells were analyzed by fluorescence microscopy (Cytation 3, BioTek Instruments) and two peptides were further examined by confocal laser scanning microscopy (Zeiss LSM-710 system). Cells were incubated with peptides in serum-free medium (DMEM) for 3 h at 37 °C and then washed twice with 200 μl of serum-free medium before analyzing.

Another assay has as its target T1, ERK2 (Homo sapiens, UniProt P28482).
T1 construct: made in house; host or cells: Escherichia coli
Briefly: Fluorescence polarization competitive binding assay, ERK2. The conditions noted are these: for Kd: competitive FP titration against 50 nM Cf-RHDF (gives Ki, used as proxy of Kd), 20 mM Tris pH 8.0, 100 mM NaCl, 0.05% Brij35, 2 mM TCEP, at least 3 independent measurements, read-out: Kd (µM) ± sd, ERK2. The procedure:
(§2) ERK2 and p38 proteins used for fluorescence polarization (FP) measurements were recombinantly expressed in Escherichia coli and purified according to Garai et al. The purified and concentrated proteins were subjected to fluorescence polarization based binding measurements ([Garai et al., 2012]) using 50 nM Cf-labeled Cf-RHDF (Cf-SLQRKKPPWLKLDIPSC) and the data was analyzed using OriginPro. For direct measurements the concentration of ERK2 and p38 protein was increased, and for competitive measurements the protein-labeled peptide complex at 60–80% complex formation was titrated with increasing concentration of unlabeled peptide and the amount of the protein-labeled peptide complex (fraction bound) was determined using Cytation 3 (BioTek Instruments) plate reader in 384-well black plates. The direct measurement gives the Kd between the labeled peptide and the MAPK, while the competitive titration experiment with the unlabeled peptide gives the Ki for the unlabeled peptide competing off the labeled peptide, which is a good proxy for the binding affinity of the unlabeled peptide to the protein. All of the FP measurements were performed in assay buffer: 20 mM Tris (pH 8.0), 100 mM NaCl, 0.05% Brij35, and 2 mM TCEP. Fraction bound of the labeled ligand was calculated based on direct binding and competitive binding equations described in ([Roehrl et al., 2004]; [Simon et al., 2020]). The Kd and Ki values were obtained by fitting the FP data, measured in triplicates, to a direct binding equation or to a competitive binding equation using the OriginPro software.
A general note: Fluorescence polarisation rises when a labelled molecule tumbles more slowly, as on binding a larger partner.

A further assay concerns the target T2, p38α (Homo sapiens, UniProt Q16539).
T2 construct: made in house; host or cells: Escherichia coli
Briefly: Fluorescence polarization competitive binding assay, p38. The conditions noted are these: competitive FP titration against 50 nM Cf-RHDF (gives Ki, used as proxy of Kd); 20 mM Tris pH 8.0, 100 mM NaCl, 0.05% Brij35, 2 mM TCEP; at least 3 independent measurements; read-out: Kd (µM) ± sd, p38. The procedure:
as §2

For the next assay, the target named is active ERK2 (pp-ERK2) (Homo sapiens, UniProt P28482). Nature of the assay: In vitro MAPK activity assay (Nanobit luciferase protein fragment complementation), ERK2. In kind it is biochemical. The conditions noted are these: for EC50: 1 nM pp-ERK2, 2 mM ATP, 50 mM HEPES pH 7.5, initial rates, luminescence, at least 3 independent measurements; for EC50 increase relative to peptide 8: ratio of EC50 values, compared with peptide 8. The procedure: (§3) In order to determine the inhibitory effect of RHDF-peptides, we used a protein fragment complementation based assay. […] Upon MAPK activity, these two proteins bind and form the active luciferase enzyme oxidizing its substrate (coelenterazine) and ultimately giving some luminescent signal. The initial rates of the reactions were calculated and were compared for the applied inhibitor’s concentration, and then EC50 values were determined using dose response fitting (OriginPro) (see in Supplementary Figure S26). Reactions were carried out in a buffer of 50 mM HEPES, pH 7.5, 100 mM NaCl, 5 mM MgCl2, 0.05% IGEPAL, 50 μM Coelenterazine h, 5% glycerol, 2 mM DTT, 1mM TCEP, 0.5 mg/ml BSA containing 1 nM active ERK2 (pp-ERK2) or p38 (pp-p38α) and were started by the addition of 2 mM ATP. Luminescence was measured using a luminescence plate reader (Cytation 3, BioTek) in white 96-well plates.
Sequence of active ERK2 (pp-ERK2) (P28482 whole entry, the tested form may be a part): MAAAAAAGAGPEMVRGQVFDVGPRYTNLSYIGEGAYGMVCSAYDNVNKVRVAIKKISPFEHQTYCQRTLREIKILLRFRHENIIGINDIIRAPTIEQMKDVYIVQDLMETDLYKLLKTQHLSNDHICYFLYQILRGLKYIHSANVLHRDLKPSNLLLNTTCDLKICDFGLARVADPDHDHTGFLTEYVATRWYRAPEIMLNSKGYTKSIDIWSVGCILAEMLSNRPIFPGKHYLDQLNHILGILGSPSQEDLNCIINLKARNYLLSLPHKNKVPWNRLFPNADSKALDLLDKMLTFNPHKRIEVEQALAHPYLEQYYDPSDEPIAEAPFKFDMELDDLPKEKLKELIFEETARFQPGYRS

A further assay deals with p38 (pp-p38α) (Homo sapiens, UniProt Q16539). Nature of the assay: In vitro MAPK activity assay (Nanobit luciferase protein fragment complementation), p38. In kind it is biochemical. As to conditions: 1 nM pp-p38α, 2 mM ATP, 50 mM HEPES pH 7.5; initial rates, luminescence; at least 3 independent measurements. The procedure:
as §3

For assay [2], the system named is HEK-293T cells. Briefly: Intracellular distribution by confocal laser scanning microscopy. In kind it is cell-based. As to conditions: 10 and 20 µM, 3 h. The procedure:
as §1

*1 amine or outer side, *2 acyl side, *3 side chain or, on linkers, in order; H or OH if unused. Where a SMILES comes first, the peptide text is derived from it. Bridges are numbered along the chain shown (N, C = ends). The star is where a group is joined. Dabcyl = CN(C)c1ccc(N=Nc2ccc(C(=O)*)cc2)cc1; TBMB = c1c(C[*:1])cc(C[*:3])cc1C[*:2]; X1 = O=C(C[*:2])[*:1]

T1 sequence (P28482 whole entry, species assumed): as the sequence (P28482 whole entry, the tested form may be a part) above
T2 sequence (Q16539 whole entry): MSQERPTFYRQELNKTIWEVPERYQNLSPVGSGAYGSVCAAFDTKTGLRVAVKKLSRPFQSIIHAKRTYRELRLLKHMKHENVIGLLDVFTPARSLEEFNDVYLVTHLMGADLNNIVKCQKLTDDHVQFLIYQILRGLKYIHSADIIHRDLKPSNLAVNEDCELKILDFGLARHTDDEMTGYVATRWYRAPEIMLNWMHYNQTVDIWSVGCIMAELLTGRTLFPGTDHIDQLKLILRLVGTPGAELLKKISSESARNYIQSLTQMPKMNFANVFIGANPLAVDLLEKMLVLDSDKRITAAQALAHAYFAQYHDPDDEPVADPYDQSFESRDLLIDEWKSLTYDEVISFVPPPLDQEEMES
Sequence of p38 (pp-p38α) (Q16539 whole entry, the tested form may be a part): as the sequence (Q16539 whole entry) above

Regarding Cf-RRPPWLRLDIRR-NH 2 [compound 7], the “internalization into HEK-293T cells” value with HEK-293T cells [1] is “time and concentration dependent internalization”.

Usually Kd stands for a measure of binding affinity in units of concentration. On to `CC(C)C[C@@H]1NC(=O)[C@H](CCCNC(=N)N)NC(=O)[C@H](CC(C)C)NC(=O)[C@H](Cc2c[nH]c3ccccc23)NC(=O)[C@@H]2CCCN2C(=O)[C@@H]2CCCN2C(=O)[C@@H](NC(=O)[C@H](CCCNC(=N)N)NC(=O)[C@H](CCCNC(=N)N)NC(=O)[C@H](CCCNC(=N)N)NC(=O)c2ccc(N=Nc3ccc(N(C)C)cc3)cc2)CCCCNC(=O)CSC[C@@H](C(N)=O)NC(=O)[C@H](CCCNC(=N)N)NC(=O)[C@H](CCCNC(=N)N)NC(=O)[C@H](CC(=O)O)NC1=O` [compound 13] (Dabcyl-RRRKPPWLRLDRRC-NH2; linker 4-14 via X1), for which the results for the Kd at ERK2 and at p38α were 1 ± 0.2 µM and 1 ± 0.7 µM, respectively.

Regarding `CC(C)C[C@@H]1NC(=O)[C@H](CCCNC(=N)N)NC(=O)[C@H](CC(C)C)NC(=O)[C@H](Cc2c[nH]c3ccccc23)NC(=O)[C@@H]2CCCN2C(=O)[C@@H]2CCCN2C(=O)[C@H](CCCNC(=N)N)NC(=O)[C@H](CCCNC(=N)N)NC(=O)[C@H](CCCNC(=N)N)NC(=O)[C@@H](NC(=O)c2ccc(N=Nc3ccc(N(C)C)cc3)cc2)CCCCNC(=O)CSC[C@@H](C(N)=O)NC(=O)[C@H](CCCNC(=N)N)NC(=O)[C@H](CCCNC(=N)N)NC(=O)[C@H](CC(=O)O)NC1=O` [compound 14] (Dabcyl-KRRRPPWLRLDRRC-NH2; linker 1-14 via X1), the Kd at ERK2 was determined as 5.1 ± 0.4 µM; at p38α, 2.1 ± 0.6 µM. By EC50 is commonly meant the concentration giving half of the maximal effect. Higher therefore signals weaker potency. Consider “H-RRRPPWLRLDIRR-NH2 [compound 8, H-RRRPPWLRLDIRR-NH 2]”, for which the EC50 is 3.5 µM at active ERK2 (pp-ERK2) and 1.3 µM on p38 (pp-p38α). Also, on p38α, the Kd is 1.4 ± 0.3 µM. Turning to `CC(C)C[C@@H]1NC(=O)[C@H](CCCNC(=N)N)NC(=O)[C@H](CC(C)C)NC(=O)[C@@H](NC(=O)[C@H](Cc2c[nH]c3ccccc23)NC(=O)[C@@H]2CCCN2C(=O)[C@@H]2CCCN2C(=O)[C@H](CCCNC(=N)N)NC(=O)[C@H](CCCNC(=N)N)NC(=O)[C@H](CCCNC(=N)N)NC(=O)c2ccc(N=Nc3ccc(N(C)C)cc3)cc2)CCCCNC(=O)CSC[C@@H](C(N)=O)NC(=O)[C@H](CCCNC(=N)N)NC(=O)[C@H](CCCNC(=N)N)NC(=O)[C@H](CC(=O)O)NC1=O` [compound 12] (Dabcyl-RRRPPWKLRLDRRC-NH2; linker 7-14 via X1), the Kd was 4.1 ± 0.3 µM on ERK2 and 1.7 ± 0.4 µM at p38α. Taken in the same sequence, the figures for `CC[C@H](C)[C@@H]1NC(=O)[C@H](CC(=O)O)NC(=O)[C@H](CC(C)C)NC(=O)[C@H](CCCNC(=N)N)NC(=O)[C@H](CC(C)C)NC(=O)[C@@H]2CSCc3cc(cc(c3)CSC[C@H](NC(=O)[C@H](CCCNC(=N)N)NC(=O)[C@H](CCCNC(=N)N)NC(=O)[C@H](CCCNC(=N)N)NC(=O)c3ccc(N=Nc4ccc(N(C)C)cc4)cc3)C(=O)N3CCC[C@H]3C(=O)N3CCC[C@H]3C(=O)N[C@@H](Cc3c[nH]c4ccccc34)C(=O)N2)CSC[C@@H](C(N)=O)NC(=O)[C@H](CCCNC(=N)N)NC(=O)[C@H](CCCNC(=N)N)NC1=O` [compound 16] (Dabcyl-RRRCPPWCLRLDIRRC-NH2; linker 4-8-16 via TBMB) were 0.9 ± 0.2 µM and 1.4 ± 0.4 µM. Take “H-KKPPWLKLDI-NH2 [compound 4, H-KKPPWLKLDI-NH 2]”: in the assay with HEK-293T cells [1], the cellular uptake entry was “poor”. Further, the “binding decrease relative to the original peptide” value at ERK2 (ERK2 Kd, compared with original peptide 1) is given as 8.3 times.

Regarding `CC[C@H](C)[C@H](NC(=O)[C@H](CC(=O)O)NC(=O)[C@H](CC(C)C)NC(=O)[C@H](CCCNC(=N)N)NC(=O)[C@H](CC(C)C)NC(=O)[C@H](Cc1c[nH]c2ccccc12)NC(=O)[C@@H]1CCCN1C(=O)[C@@H]1CCCN1C(=O)[C@H](CCCNC(=N)N)NC(=O)[C@H](CCCNC(=N)N)NC(=O)[C@H](CCCNC(=N)N)NC(=O)c1ccc(/N=N/c2ccc(N(C)C)cc2)cc1)C(=O)N[C@@H](CCCNC(=N)N)C(=O)N[C@@H](CCCNC(=N)N)C(=O)N[C@@H](CCCCN)C(N)=O` [compound 10, Dabcyl-RRRPPWLRLDIRRK-NH 2], the “EC50 increase relative to peptide 8” value at active ERK2 (pp-ERK2) came out at 2.4 times. Consider `CC[C@H](C)[C@H](NC(=O)[C@H](CC(=O)O)NC(=O)[C@H](CC(C)C)NC(=O)[C@H](CCCCN)NC(=O)[C@H](CC(C)C)NC(=O)[C@H](Cc1c[nH]c2ccccc12)NC(=O)[C@@H]1CCCN1C(=O)[C@@H]1CCCN1C(=O)[C@H](CCCCN)NC(=O)[C@H](CCCCN)NC(=O)[C@H](CCCNC(=N)N)NC(=O)[C@H](CCC(N)=O)NC(=O)[C@H](CC(C)C)NC(=O)[C@@H](N)CO)C(=O)N1CCC[C@H]1C(=O)N[C@@H](CO)C(=O)N[C@@H](CS)C(N)=O` [compound 1, H-SLQRKKPPWLKLDIPSC-NH 2], for which the cellular uptake entry in the assay with HEK-293T cells [1] was “poor”.

In the case of `CC(C)C[C@@H]1NC(=O)[C@H](CCCNC(=N)N)NC(=O)[C@H](CC(C)C)NC(=O)[C@@H]2CSCc3cc(cc(c3)CSC[C@H](NC(=O)[C@H](CCCNC(=N)N)NC(=O)[C@H](CCCNC(=N)N)NC(=O)[C@H](CCCNC(=N)N)NC(=O)c3ccc(N=Nc4ccc(N(C)C)cc4)cc3)C(=O)N3CCC[C@H]3C(=O)N3CCC[C@H]3C(=O)N[C@@H](Cc3c[nH]c4ccccc34)C(=O)N2)CSC[C@@H](C(N)=O)NC(=O)[C@H](CCCNC(=N)N)NC(=O)[C@H](CCCNC(=N)N)NC(=O)[C@H](CC(=O)O)NC1=O` [compound 17] (Dabcyl-RRRCPPWCLRLDRRC-NH2; linker 4-8-15 via TBMB), the Kd turned out to be 4.5 ± 0.6 µM on ERK2 and 3.2 ± 0.7 µM at p38α.

Consider `CC[C@H](C)[C@@H]1NC(=O)[C@H](CC(=O)O)NC(=O)[C@H](CC(C)C)NC(=O)[C@H](CCCNC(=N)N)NC(=O)[C@H](CC(C)C)NC(=O)[C@H](Cc2c[nH]c3ccccc23)NC(=O)[C@@H]2CCCN2C(=O)[C@@H]2CCCN2C(=O)[C@@H](NC(=O)[C@H](CCCNC(=N)N)NC(=O)[C@H](CCCNC(=N)N)NC(=O)[C@H](CCCNC(=N)N)NC(=O)c2ccc(N=Nc3ccc(N(C)C)cc3)cc2)CCCCNC(=O)CSC[C@@H](C(N)=O)NC(=O)[C@H](CCCNC(=N)N)NC(=O)[C@H](CCCNC(=N)N)NC1=O` [compound 15] (Dabcyl-RRRKPPWLRLDIRRC-NH2; linker 4-15 via X1), for which the Kd on ERK2 turned out to be 1.5 ± 0.3 µM; at p38α, 1.2 ± 0.6 µM.

Take Cf- RRRPPWLRLDIRR-NH 2 [compound 9]: in the assay on HEK-293T cells [1], the “internalization into HEK-293T cells” value is “time and concentration dependent internalization”. Further, in the assay with HEK-293T cells [2], the intracellular distribution entry is reported as “punctuated”. Turning to “H-RRPPWLRLDI-NH2 [compound 5, H-RRPPWLRLDI-NH 2]”, the cellular uptake entry with HEK-293T cells [1] is “poor”. With “H-RRPPWLRLDIRR-NH2 [compound 6, H-RRPPWLRLDIRR-NH 2]”, at active ERK2 (pp-ERK2), the EC50 was 12.9 µM and the “EC50 increase relative to peptide 8” value was 3.7 times. The compound also yielded a 50% effective concentration (EC50) at p38 (pp-p38α) of 3.7 µM. Further, the “binding enhancement by extension of the C-terminus by two Arg” value at ERK2 (ERK2 Kd, compared with peptide 5) was 3.5 times.
